In the assay the test system is beta-lactamase reporter cell line, FRET read-out, counterscreen. The assay can be described thus: beta-lactamase reporter inhibitors, potency curves, dose response, counter-screen for GALR2 antagonist project, cell-based, FRET readout (AID 1238). Background: The purpose of a counterscreen is to sort out artefacts and off-target activity.

Active and inactive are the calls of the source. The rule behind the calls is not given here.

With `c1cnc2c(c1)ccc1cccnc12`, the IC50 (in general, the concentration that gives 50% inhibition) was > 42 µM (inactive).

Turning to `O=S(=O)(NCc1ccncc1)c1ccc(Br)s1`, the IC50 is > 42 µM (inactive).

Take `CCOC(=O)c1ccc(N2C(=O)CC(N3CCC(O)(c4ccc(Br)cc4)CC3)C2=O)cc1` (stereo not drawn): the IC50 was > 42 µM (inactive).

In the case of `CCOC(=O)N1CCN(c2ncnc3c2[nH]c2ccc(F)cc23)CC1`, the IC50 is > 42 µM (inactive).

For `Cc1sc2ncnc(NCCc3ccc(S(N)(=O)=O)cc3)c2c1C`, the IC50 was > 42 µM (inactive).

Regarding `COc1ccc(CCNc2c(C)c(C)nc3ncnn23)cc1`, the IC50 is > 42 µM (inactive).

With `O=C(/C=C/Sc1ncn[nH]1)c1ccc(Cl)cc1`, the IC50 is 17 µM (inactive).

As for `O=C(/C=C/c1ccc(Cl)cc1)NC(=S)Nc1ccc(NC(=O)c2ccco2)cc1`, the IC50 was > 14 µM (inactive).

Take `Cc1cccc(C(=O)Nc2ccc(C(=O)/C=C/c3cccnc3)cc2)c1`: the IC50 was 17.9 µM (inactive).

With `CC(=O)c1c(C)[nH]c(C(=O)OCCCCN2C(=O)c3ccccc3C2=O)c1C`, the IC50 is > 42 µM (inactive).

For `CC(=O)SC(C[N+](=O)[O-])c1cn(C(C)=O)c2ccccc12` (stereo not drawn), the IC50 is 17.1 µM (inactive).

With `O=C(Cn1ncc(Cl)c(Cl)c1=O)N1CCN(S(=O)(=O)c2ccc3ccccc3c2)CC1`, the IC50 was > 14 µM (inactive).

With `Cc1nnc(SCC(=O)Nc2cccc(S(=O)(=O)N(C)c3ccccc3)c2)s1`, the IC50 is > 42 µM (inactive).

In the case of `Cc1cc(Nc2cccc(Cl)c2)nc(NCc2ccccc2)n1`, the IC50 is > 14 µM (inactive).

As to `CC(=O)c1c(C)[nH]c(C(=O)OCC(=O)Nc2ccc(Cl)cc2[N+](=O)[O-])c1C`, the IC50 is > 42 µM (inactive).

`CCOc1ccc(S(=O)(=O)NCc2ccncc2)cc1`: the IC50 was > 42 µM (inactive).

As to `CNc1nc2cc([N+](=O)[O-])c([N+](=O)[O-])cc2nc1NC`, the IC50 was > 42 µM (inactive).

Turning to `O=C(Nc1ccc2nc(-c3cccnc3)[nH]c2c1)C12CC3CC(CC(C3)C1)C2`, the IC50 was > 42 µM (inactive).

As for `Cn1nc(C(C)(C)C)cc1C(=O)NCc1ccc(N2CCCC2=O)cc1`, the IC50 is > 42 µM (inactive).

On to `Cc1ccc(S(=O)(=O)NCc2ccncc2)cc1`, for which the IC50 was > 42 µM (inactive).

Take `C1=C(CCNc2ncnc3c2[nH]c2ccccc23)CCCC1`: the IC50 was > 42 µM (inactive).

With `Cc1nc2ccc(NC(=O)c3cc(S(=O)(=O)N(C)c4ccccc4)ccc3Cl)cc2s1`, the IC50 was > 42 µM (inactive).

On to `Cc1ccc(S(=O)(=O)CC2CSc3nc4ccccc4n32)cc1` (stereo not drawn), for which the IC50 was > 42 µM (inactive).

On to `CCn1c2ccc(C)cc2c2nc3cc(C(=O)O)ccc3nc21`, for which the IC50 was > 42 µM (inactive).

Consider `CC1CCC/C=C/C2CC(O)CC2C(O)/C=C/C(=O)O1` (stereo not drawn), for which the IC50 was > 42 µM (inactive).

For the compound `O=[N+]([O-])c1cc(-c2ncccn2)c([N+](=O)[O-])s1`, the IC50 was 9.61 µM.

`Cc1ccc2[nH]c3c(N4CCc5ccccc5C4)ncnc3c2c1`: the IC50 is > 42 µM (inactive).

With `CN(C)c1ccc(NC2=C(Cl)C(=O)c3ccccc3C2=O)cc1`, the IC50 is > 14 µM (inactive).

As to `CN(C(=S)NC1CCCCC1)C1(c2ccccc2Cl)CCCCC1=O` (stereo not drawn), the IC50 was > 42 µM (inactive).

Consider `N#C/C(=C\c1cccs1)c1nc2ccccc2[nH]1`, for which the IC50 was > 42 µM (inactive).

For the compound `COC(=O)c1ccc(COC(=O)c2[nH]c(C)c(C(C)=O)c2C)o1`, the IC50 is > 42 µM (inactive).

Take `CCOC(=O)c1cc([N+](=O)[O-])c([N+](=O)[O-])cc1NC(C)=O`: the IC50 was 7.53 µM.

For `c1ccc2c(c1)[nH]c1c(NCC3CCCO3)ncnc12` (stereo not drawn), the IC50 was > 42 µM (inactive).

Take `c1ccc2c(c1)OCC(CNc1ncnc3sccc13)O2` (stereo not drawn): the IC50 was > 42 µM (inactive).

On to `Cc1cc(C)c(S(=O)(=O)NCc2ccncc2)c(C)c1`, for which the IC50 is > 42 µM (inactive).

`O=C(Cc1cccs1)Nc1cccc(-c2nc3cc4ccccc4cc3[nH]2)c1`: the IC50 is > 42 µM (inactive).

Consider `CC(=O)Nc1ccccc1OCC(=O)c1cc(C)n(Cc2cccs2)c1C`, for which the IC50 was > 42 µM (inactive).

For `CCCCOc1ncnc2c1[nH]c1ccc(F)cc12`, the IC50 was > 42 µM (inactive).

As to `CCCOc1ncnc2c1[nH]c1ccccc12`, the IC50 was > 42 µM (inactive).

With `Cc1cc(C(=O)CSc2nc3ccccc3[nH]2)c(C)n1CC1CCCO1` (stereo not drawn), the IC50 was > 42 µM (inactive).

Consider `CCc1ccccc1NC(=O)CN(C)C(=O)Cn1ncc(Cl)c(Cl)c1=O`, for which the IC50 was 17.1 µM (inactive).

For `CCOC(=O)COc1ccc(S(=O)(=O)NCc2ccncc2)cc1`, the IC50 is > 42 µM (inactive).

With `COc1cc(/C=C/[N+](=O)[O-])ccc1O`, the IC50 was 11.1 µM (inactive).

The values are drawn from PubChem BioAssay AID1238 (The Scripps Research Institute Molecular Screening Center, 2008).
